Legend:
Experiment in all cases: KRas binding assay, TR-FRET displacement of Cy5 labelled tracer
Conditions in all cases: 60-minute incubation at room temperature, 1% DMSO, pH 7.5
KRas G12C = target: T1, KRas G12C (Homo sapiens, UniProt P01116, G12C)
T1 construct: Biotinylated KRas (corresponding to amino acids 1-169, produced at Accelegan Inc.); biotin (biotinylated); purchased Accelegan Inc
Method: (§1) This Example illustrates that exemplary compounds of the present invention bind to KRas and are capable of displacing a labeled tracer ligand occupying the KRas binding site. KRas^WT, KRas^G12A, KRas^G12C, KRas^G12D, KRas^G12R, KRas^G12S, KRas^G12V, KRas^G13D, or KRas^Q61H was used in the assay.
(§2) The ability of a compound to bind to KRas was measured using a TR-FRET displacement assay. Biotinylated KRas (corresponding to amino acids 1-169, produced at Accelegan Inc.) was incubated with custom made Cy5 labelled tracer, terbium streptavidin (Cisbio Inc.) and compound (1% DMSO final) in buffer (50 mM HEPES, pH 7.5, 5 mM MgCl2, 0.005% Tween-20 and 1 mM DTT). After a 60-minute incubation at room temperature, the reaction was measured using a BMG LABTECH CLARIO star Plus via TR-FRET. […] The POC values were fit to a 4-parameter IC50 equation and the IC50 value reported.

KRas WT = target: T2, KRas WT (Homo sapiens, UniProt P01116)
T2 construct: Biotinylated KRas (corresponding to amino acids 1-169, produced at Accelegan Inc.); biotin (biotinylated); purchased Accelegan Inc
Method: as §1, §2

KRas G12S = target: T3, KRas G12S (Homo sapiens, UniProt P01116, G12S)
T3 construct: Biotinylated KRas (corresponding to amino acids 1-169, produced at Accelegan Inc.); biotin (biotinylated); purchased Accelegan Inc
Method: as §1, §2

T2 sequence (P01116 1-169 isoform P01116-2): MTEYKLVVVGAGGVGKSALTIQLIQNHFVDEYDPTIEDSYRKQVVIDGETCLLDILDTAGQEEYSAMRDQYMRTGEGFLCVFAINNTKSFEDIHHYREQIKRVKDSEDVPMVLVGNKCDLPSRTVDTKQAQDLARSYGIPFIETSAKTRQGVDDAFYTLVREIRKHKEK
T1 sequence (P01116 1-169 isoform P01116-2 G12C): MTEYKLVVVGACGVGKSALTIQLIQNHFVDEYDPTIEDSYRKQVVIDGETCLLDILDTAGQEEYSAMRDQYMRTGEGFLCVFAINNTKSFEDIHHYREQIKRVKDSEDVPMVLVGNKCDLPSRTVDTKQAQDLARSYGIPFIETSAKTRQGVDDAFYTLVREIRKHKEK
T3 sequence (P01116 1-169 isoform P01116-2 G12S): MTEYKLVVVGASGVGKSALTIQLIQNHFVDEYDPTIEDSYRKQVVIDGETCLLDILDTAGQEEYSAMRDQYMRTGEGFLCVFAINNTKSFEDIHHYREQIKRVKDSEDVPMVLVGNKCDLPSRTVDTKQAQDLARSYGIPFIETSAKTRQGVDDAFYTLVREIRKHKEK

Row | Compound | IC50 (KRas G12C) | IC50 (KRas WT) | IC50 (KRas G12S)
1 | O=C(Oc1ccccc1)C1CCN(c2nc(OCC34CCCN3CCC4)nc3c(F)c(-c4cccc5cccc(F)c45)ncc23)CC1 [Example 44, phenyl 1-(8-fluoro-7-(8-fluoronaphthalen-1-yl)-2-((tetrahydro-1H-pyrrolizin-7a(5H)-yl)methoxy)pyrido[4,3-d]pyrimidin-4-yl)piperidine-4-carboxylate] | 1770 nM | > 100000 nM | 81100 nM
2 | O=C(Oc1ccc(C(F)(F)F)cc1)C1CCCN(c2nc(OCC34CCCN3CCC4)nc3c(F)c(-c4cccc5cccc(F)c45)ncc23)CC1 (stereo not drawn) [Example 50, 4-(trifluoromethyl)phenyl 1-(8-fluoro-7-(8-fluoronaphthalen-1-yl)-2-((tetrahydro-1H-pyrrolizin-7a(5H)-yl)methoxy)pyrido[4,3-d]pyrimidin-4-yl) azepane-4-carboxylate] | 3440 nM |  | 55600 nM
3 | O=C(Oc1ccc(F)c(F)c1)C1CCN(c2nc(OCC34CCCN3CCC4)nc3c(F)c(-c4cccc5cccc(F)c45)ncc23)CC1 [Example 43, 3,4-difluorophenyl 1-(8-fluoro-7-(8-fluoronaphthalen-1-yl)-2-((tetrahydro-1H-pyrrolizin-7a(5H)-yl)methoxy)pyrido[4,3-d]pyrimidin-4-yl)piperidine-4-carboxylate] | 424 nM | > 100000 nM | 42100 nM
4 | O=C(Oc1ccccc1F)C1CCN(c2nc(OCC34CCCN3CCC4)nc3c(F)c(-c4cccc5cccc(F)c45)ncc23)CC1 [Example 35, 2-fluorophenyl 1-(8-fluoro-7-(8-fluoronaphthalen-1-yl)-2-((tetrahydro-1H-pyrrolizin-7a(5H)-yl)methoxy)pyrido[4,3-d]pyrimidin-4-yl)piperidine-4-carboxylate] | 321 nM | 92600 nM | 47500 nM
5 | O=C(Oc1ccc(F)cc1)[C@@H]1[C@@H]2C[C@H]1CN(c1nc(OCC34CCCN3CCC4)nc3c(F)c(-c4cccc5cccc(F)c45)ncc13)C2 [Example 7, 4-fluorophenyl (1R,5S,6r)-3-(8-fluoro-7-(8-fluoronaphthalen-1-yl)-2-((tetrahydro-1H-pyrrolizin-7a(5H)-yl)methoxy)pyrido[4,3-d]pyrimidin-4-yl)-3-azabicyclo[3.1.1]heptane-6-carboxylate] | 20400 nM | 24200 nM | 21200 nM
6 | O=C(OCC(F)(F)F)[C@@H]1[C@@H]2CC[C@H]1CN(c1nc(OCC34CCCN3CCC4)nc3c(F)c(-c4cccc5cccc(F)c45)ncc13)C2 [Example 18, 2,2,2-trifluoroethyl (1R,5S,8r)-3-(8-fluoro-7-(8-fluoronaphthalen-1-yl)-2-((tetrahydro-1H-pyrrolizin-7a(5H)-yl)methoxy)pyrido[4,3-d]pyrimidin-4-yl)-3-azabicyclo[3.2.1]octane-8-carboxylate] | 42100 nM | 7970 nM | 30000 nM
7 | O=C(C1CCN(c2nc(OCC34CCCN3CCC4)nc3c(F)c(-c4cccc5cccc(F)c45)ncc23)CC1)n1cccn1 [Example 11, (1-(8-fluoro-7-(8-fluoronaphthalen-1-yl)-2-((tetrahydro-1H-pyrrolizin-7a(5H)-yl)methoxy)pyrido[4,3-d]pyrimidin-4-yl)piperidin-4-yl)(1H-pyrazol-1-yl)methanone] | 8160 nM | 9270 nM | 3840 nM

Results, then the compound that gave them:

Row | IC50 (KRas G12C) | IC50 (KRas WT) | IC50 (KRas G12S) | Compound
8 | 30300 nM | 25400 nM | 56500 nM | O=C(Oc1ccccc1)C1CCCN(c2nc(OCC34CCCN3CCC4)nc3c(F)c(-c4cccc5cccc(F)c45)ncc23)C1 (stereo not drawn) [Example 51, phenyl 1-(8-fluoro-7-(8-fluoronaphthalen-1-yl)-2-((tetrahydro-1H-pyrrolizin-7a(5H)-yl)methoxy)pyrido[4,3-d]pyrimidin-4-yl)piperidine-3-carboxylate]
9 | 2740 nM |  | 30100 nM | O=C(Oc1ccc(F)c(F)c1)C1CCCN(c2nc(OCC34CCCN3CCC4)nc3c(F)c(-c4cccc5cccc(F)c45)ncc23)CC1 (stereo not drawn) [Example 48, 3,4-difluorophenyl 1-(8-fluoro-7-(8-fluoronaphthalen-1-yl)-2-((tetrahydro-1H-pyrrolizin-7a(5H)-yl)methoxy)pyrido[4,3-d]pyrimidin-4-yl) azepane-4-carboxylate]
10 | 272 nM | 28700 nM | 39000 nM | O=C(Oc1ccc(F)cc1F)C1CCN(c2nc(OCC34CCCN3CCC4)nc3c(F)c(-c4cccc5cccc(F)c45)ncc23)CC1 [Example 13, 2,4-difluorophenyl 1-(8-fluoro-7-(8-fluoronaphthalen-1-yl)-2-((tetrahydro-1H-pyrrolizin-7a(5H)-yl)methoxy)pyrido[4,3-d]pyrimidin-4-yl)piperidine-4-carboxylate]
11 | 19600 nM | 43900 nM | 4670 nM | Cc1ccn(C(=O)C2CCN(c3nc(OCC45CCCN4CCC5)nc4c(F)c(-c5cccc6cccc(F)c56)ncc34)CC2)n1 [Example 10, (1-(8-fluoro-7-(8-fluoronaphthalen-1-yl)-2-((tetrahydro-1H-pyrrolizin-7a(5H)-yl)methoxy)pyrido[4,3-d]pyrimidin-4-yl)piperidin-4-yl)(3-methyl-1H-pyrazol-1-yl)methanone]
12 | 452 nM | 89200 nM | > 100000 nM | N#Cc1ccccc1OC(=O)C1CCN(c2nc(OCC34CCCN3CCC4)nc3c(F)c(-c4cccc5cccc(F)c45)ncc23)CC1 [Example 27, 2-cyanophenyl 1-(8-fluoro-7-(8-fluoronaphthalen-1-yl)-2-((tetrahydro-1H-pyrrolizin-7a(5H)-yl)methoxy)pyrido[4,3-d]pyrimidin-4-yl)piperidine-4-carboxylate]
13 | 761 nM | 19300 nM | 27900 nM | O=CC1CCN(c2nc(OCC34CCCN3CCC4)nc3c(F)c(-c4cccc5cccc(F)c45)ncc23)CC1 [Example 38, 1-(8-fluoro-7-(8-fluoronaphthalen-1-yl)-2-((tetrahydro-1H-pyrrolizin-7a(5H)-yl)methoxy)pyrido[4,3-d]pyrimidin-4-yl)piperidine-4-carbaldehyde]
14 | 6810 nM | 20200 nM | 27100 nM | O=C(Oc1ccccc1F)C1CCCN(c2nc(OCC34CCCN3CCC4)nc3c(F)c(-c4cccc5cccc(F)c45)ncc23)C1 (stereo not drawn) [Example 52, 2-fluorophenyl 1-(8-fluoro-7-(8-fluoronaphthalen-1-yl)-2-((tetrahydro-1H-pyrrolizin-7a(5H)-yl)methoxy)pyrido[4,3-d]pyrimidin-4-yl)piperidine-3-carboxylate]
15 | > 100000 nM | 65700 nM | > 100000 nM | COC(=O)[C@H]1CCN(c2nc(OCC34CCCN3CCC4)nc3c(F)c(-c4cccc5cccc(F)c45)ncc23)C[C@@H]1O [Example 45, methyl (3R,4S)-1-(8-fluoro-7-(8-fluoronaphthalen-1-yl)-2-((tetrahydro-1H-pyrrolizin-7a(5H)-yl)methoxy)pyrido[4,3-d]pyrimidin-4-yl)-3-hydroxypiperidine-4-carboxylate]
16 | 65900 nM |  | 54800 nM | COC(=O)C1CCCN(c2nc(OCC34CCCN3CCC4)nc3c(F)c(-c4cccc5cccc(F)c45)ncc23)CC1 (stereo not drawn) [Example 49, methyl 1-(8-fluoro-7-(8-fluoronaphthalen-1-yl)-2-((tetrahydro-1H-pyrrolizin-7a(5H)-yl)methoxy)pyrido[4,3-d]pyrimidin-4-yl) azepane-4-carboxylate]

From patent US20260356856A1, “KRAS G12S AND G12C INHIBITORS” (MIRATI THERAPEUTICS, INC., priority 2023, published 2026)
